Data published in ChEMBL document CHEMBL1158231, “Antiviral sulfated steroids from the ophiuroid Ophioplocus januarii” (J Nat Prod, 1996).

Columns and labels:
Poliovirus 3 [1] = assay: Antiviral activity against human poliovirus 3 Sabin infected african green monkey Vero cells assessed as reduction of virus plaque formation at 20 ug/mL; assay type: functional; set-up: scale not given: the % may be the effect or the level left
Junin virus [2] = assay: Antiviral activity against Junin virus IV 4454 infected african green monkey Vero cells assessed as reduction of virus plaque formation at 40 ug/mL; assay type: functional, Mammarenavirus juninense; set-up: scale not given: the % may be the effect or the level left
Human alphaherpesvirus 1 [3] = assay: Antiviral activity against HSV1 F infected african green monkey Vero cells assessed as reduction of virus plaque formation at 20 ug/mL; assay type: functional; set-up: scale not given: the % may be the effect or the level left
Poliovirus 3 [4] = assay: Antiviral activity against human poliovirus 3 Sabin infected african green monkey Vero cells assessed as reduction of virus plaque formation at 40 ug/mL; assay type: functional; set-up: scale not given: the % may be the effect or the level left
[5] = test system: Respiratory syncytial virus; assay: Antiviral activity against RSV Long infected human Hep2 cells assessed as inhibition of viral-induced cytopathic effect at 10 ug/mL; assay type: functional; conditions: HEp-2
[6] = test system: Respiratory syncytial virus; assay: Antiviral activity against RSV Long infected human Hep2 cells assessed as inhibition of viral-induced cytopathic effect at 20 ug/mL; assay type: functional; conditions: HEp-2
[7] = Cytotoxicity against african green monkey Vero cells assessed as cell viability at 40 ug/mL after 7 days by trypan blue exclusion method; assay type: cell-based; conditions: chlorocebus sabaeus, read-out: Activity
Poliovirus 3 [8] = assay: Antiviral activity against human poliovirus 3 Sabin infected african green monkey Vero cells assessed as reduction of virus plaque formation at 10 ug/mL; assay type: functional; set-up: scale not given: the % may be the effect or the level left
Poliovirus 3 [9] = assay: Antiviral activity against human poliovirus 3 Sabin infected african green monkey Vero cells assessed as reduction of virus plaque formation at 5 ug/mL; assay type: functional; set-up: scale not given: the % may be the effect or the level left
Junin virus [10] = assay: Antiviral activity against Junin virus IV 4454 infected african green monkey Vero cells assessed as reduction of virus plaque formation at 10 ug/mL; assay type: functional, Mammarenavirus juninense; set-up: scale not given: the % may be the effect or the level left
Human alphaherpesvirus 1 [11] = assay: Antiviral activity against HSV1 F infected african green monkey Vero cells assessed as reduction of virus plaque formation at 40 ug/mL; assay type: functional; set-up: scale not given: the % may be the effect or the level left
Human alphaherpesvirus 1 [12] = assay: Antiviral activity against HSV1 F infected african green monkey Vero cells assessed as reduction of virus plaque formation at 10 ug/mL; assay type: functional; set-up: scale not given: the % may be the effect or the level left
Junin virus [13] = assay: Antiviral activity against Junin virus IV 4454 infected african green monkey Vero cells assessed as reduction of virus plaque formation at 20 ug/mL; assay type: functional, Mammarenavirus juninense; set-up: scale not given: the % may be the effect or the level left
[14] = test system: Respiratory syncytial virus; assay: Antiviral activity against RSV Long infected human Hep2 cells assessed as inhibition of viral-induced cytopathic effect at 40 ug/mL; assay type: functional; conditions: HEp-2
Vero [15] = assay: Cytotoxicity against african green monkey Vero cells at 20 ug/mL after 7 days by trypan blue exclusion method; assay type: cell-based; conditions: chlorocebus sabaeus, 168 h
Human alphaherpesvirus 1 [16] = assay: Antiviral activity against HSV1 F infected african green monkey Vero cells assessed as reduction of virus plaque formation at 5 ug/mL; assay type: functional; set-up: scale not given: the % may be the effect or the level left
Vero [17] = assay: Cytotoxicity against african green monkey Vero cells at 10 ug/mL after 7 days by trypan blue exclusion method; assay type: cell-based; conditions: chlorocebus sabaeus, 168 h
Vero [18] = assay: Cytotoxicity against african green monkey Vero cells at 5 ug/mL after 7 days by trypan blue exclusion method; assay type: cell-based; conditions: chlorocebus sabaeus, 168 h
[19] = test system: Respiratory syncytial virus; assay: Antiviral activity against RSV Long infected human Hep2 cells assessed as inhibition of viral-induced cytopathic effect at 5 ug/mL; assay type: functional; conditions: HEp-2
Junin virus [20] = assay: Antiviral activity against Junin virus IV 4454 infected african green monkey Vero cells assessed as reduction of virus plaque formation at 5 ug/mL; assay type: functional, Mammarenavirus juninense; set-up: scale not given: the % may be the effect or the level left

CC(C)CCC[C@@H](COS(=O)(=O)[O-])[C@H]1CC[C@H]2[C@@H]3CC[C@@H]4[C@H](O)[C@H](OS(=O)(=O)[O-])CC[C@]4(C)[C@H]3[C@@H](O)C[C@]12C.[Na+].[Na+]
Activity (Poliovirus 3 [1]): 24% | Activity (Junin virus [2]): 33% | Activity (Human alphaherpesvirus 1 [3]): 8% | Activity (Poliovirus 3 [4]): 30% | inhibition at 10 µg/mL [5]: 0% | inhibition at 20 µg/mL [6]: 25% | viability at 168 h, 40 ug/mL [7]: 100% | Activity (Poliovirus 3 [8]): 0% | Activity (Poliovirus 3 [9]): 0% | Activity (Junin virus [10]): 26% | Activity (Human alphaherpesvirus 1 [11]): 35% | Activity (Human alphaherpesvirus 1 [12]): 7% | Activity (Junin virus [13]): 28% | inhibition at 40 µg/mL [14]: 25% | Activity (Vero [15]): Non-toxic | Activity (Human alphaherpesvirus 1 [16]): 2% | Activity (Vero [17]): Non-toxic | Activity (Vero [18]): Non-toxic | inhibition at 5 µg/mL [19]: 0% | Activity (Junin virus [20]): 24%

CC(C)C/C=C/[C@@H](COS(=O)(=O)[O-])[C@H]1CC[C@H]2[C@@H]3CC[C@@H]4[C@H](O)[C@H](OS(=O)(=O)[O-])CC[C@]4(C)[C@H]3[C@@H](O)C[C@]12C.[Na+].[Na+]
Activity (Poliovirus 3 [1]): 35% | Activity (Junin virus [2]): 47% | Activity (Human alphaherpesvirus 1 [3]): 14% | Activity (Poliovirus 3 [4]): 68% | inhibition at 10 µg/mL [5]: 25% | inhibition at 20 µg/mL [6]: 50% | viability at 168 h, 40 ug/mL [7]: 100% | Activity (Poliovirus 3 [8]): 0% | Activity (Poliovirus 3 [9]): 0% | Activity (Junin virus [10]): 31% | Activity (Human alphaherpesvirus 1 [11]): 39% | Activity (Human alphaherpesvirus 1 [12]): 0% | Activity (Junin virus [13]): 36% | inhibition at 40 µg/mL [14]: 75% | Activity (Vero [15]): Non-toxic | Activity (Human alphaherpesvirus 1 [16]): 0% | Activity (Vero [17]): Non-toxic | Activity (Vero [18]): Non-toxic | inhibition at 5 µg/mL [19]: 0% | Activity (Junin virus [20]): 15%

CC(C)/C=C/[C@@H](COS(=O)(=O)[O-])[C@H]1CC[C@H]2[C@@H]3CC[C@@H]4[C@H](O)[C@H](OS(=O)(=O)[O-])CC[C@]4(C)[C@H]3[C@@H](O)C[C@]12C.[Na+].[Na+]
Activity (Poliovirus 3 [1]): 37% | Activity (Junin virus [2]): 37% | Activity (Human alphaherpesvirus 1 [3]): 12% | Activity (Poliovirus 3 [4]): 65% | inhibition at 10 µg/mL [5]: 0% | inhibition at 20 µg/mL [6]: 50% | viability at 168 h, 40 ug/mL [7]: 100% | Activity (Poliovirus 3 [8]): 8% | Activity (Poliovirus 3 [9]): 0% | Activity (Junin virus [10]): 21% | Activity (Human alphaherpesvirus 1 [11]): 36% | Activity (Human alphaherpesvirus 1 [12]): 0% | Activity (Junin virus [13]): 29% | inhibition at 40 µg/mL [14]: 75% | Activity (Vero [15]): Non-toxic | Activity (Human alphaherpesvirus 1 [16]): 0% | Activity (Vero [17]): Non-toxic | Activity (Vero [18]): Non-toxic | inhibition at 5 µg/mL [19]: 0% | Activity (Junin virus [20]): 10%

C=C(CC[C@@H](COS(=O)(=O)[O-])[C@H]1CC[C@H]2[C@@H]3CC[C@@H]4[C@H](O)[C@H](OS(=O)(=O)[O-])CC[C@]4(C)[C@H]3[C@@H](O)C[C@]12C)C(C)C.[Na+].[Na+]
Activity (Poliovirus 3 [1]): 16% | Activity (Junin virus [2]): 54% | Activity (Human alphaherpesvirus 1 [3]): 20% | Activity (Poliovirus 3 [4]): 31% | inhibition at 10 µg/mL [5]: 25% | inhibition at 20 µg/mL [6]: 25% | viability at 168 h, 40 ug/mL [7]: 100% | Activity (Poliovirus 3 [8]): 0% | Activity (Poliovirus 3 [9]): 0% | Activity (Junin virus [10]): 33% | Activity (Human alphaherpesvirus 1 [11]): 36% | Activity (Human alphaherpesvirus 1 [12]): 11% | Activity (Junin virus [13]): 38% | inhibition at 40 µg/mL [14]: 50% | Activity (Vero [15]): Non-toxic | Activity (Human alphaherpesvirus 1 [16]): 3% | Activity (Vero [17]): Non-toxic | Activity (Vero [18]): Non-toxic | inhibition at 5 µg/mL [19]: 0% | Activity (Junin virus [20]): 19%
